Reference: ChEMBL document CHEMBL1126348, “1,3,4-trisubstituted pyrrolidinones as scaffolds for construction of peptidomimetic cholecystokinin antagonists” (Bioorg Med Chem Lett, 1992)

Legend:
[1] = target: T1, Cholecystokinin receptor type A (Rattus norvegicus, UniProt P30551); test: Displacement of [125I]CCK-OP radioligand from Cholecystokinin type A receptor in rat pancreatic acinar membrane binding assay; format: cell membranes
T1 sequence (P30551 whole entry): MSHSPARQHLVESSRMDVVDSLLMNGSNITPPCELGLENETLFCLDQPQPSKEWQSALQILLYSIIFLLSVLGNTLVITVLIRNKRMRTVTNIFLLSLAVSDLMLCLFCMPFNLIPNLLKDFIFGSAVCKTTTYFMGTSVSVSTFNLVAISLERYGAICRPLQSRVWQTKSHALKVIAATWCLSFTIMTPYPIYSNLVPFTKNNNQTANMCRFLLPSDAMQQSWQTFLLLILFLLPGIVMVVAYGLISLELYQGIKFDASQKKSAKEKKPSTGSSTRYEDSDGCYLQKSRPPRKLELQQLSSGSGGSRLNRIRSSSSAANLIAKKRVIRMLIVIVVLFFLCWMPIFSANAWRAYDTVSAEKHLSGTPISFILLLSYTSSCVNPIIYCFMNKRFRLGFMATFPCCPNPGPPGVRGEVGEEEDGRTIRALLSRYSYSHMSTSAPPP

[2] = target: T2, Cholecystokinin receptor type A (Cavia porcellus, UniProt Q63931); test: Compound was tested for competitive blocking of guinea pig ileal smooth muscle strip contraction to cholecystokinin-8 (CCK-8) receptor; format: functional; settings: read-out: pA2 (converted)
T2 sequence (Q63931 whole entry): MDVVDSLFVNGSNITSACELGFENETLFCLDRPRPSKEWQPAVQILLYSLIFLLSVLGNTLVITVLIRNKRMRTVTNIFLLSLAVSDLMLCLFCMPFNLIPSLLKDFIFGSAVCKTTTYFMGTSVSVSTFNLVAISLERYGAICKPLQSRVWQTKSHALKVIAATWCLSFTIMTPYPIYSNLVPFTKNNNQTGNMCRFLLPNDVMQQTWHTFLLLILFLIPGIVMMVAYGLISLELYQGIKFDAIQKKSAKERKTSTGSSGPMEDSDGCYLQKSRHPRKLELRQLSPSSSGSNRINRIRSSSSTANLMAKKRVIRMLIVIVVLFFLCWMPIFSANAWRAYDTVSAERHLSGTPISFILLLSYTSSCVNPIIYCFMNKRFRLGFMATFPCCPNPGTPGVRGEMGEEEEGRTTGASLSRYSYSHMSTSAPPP

[3] = target: T3, Cholecystokinin receptor type A (Rattus norvegicus) (UniProt P30551); test: Effective dose of compound causing reversal of cholecystokinin-8 (CCK-8) receptor induced delayed gastric emptying in the rat when administered intraperitoneally; format: functional; settings: Stomach
T3 sequence (whole entry): T1 sequence (P30551 whole entry)

[4] = target: T3, Cholecystokinin receptor type A (Rattus norvegicus); test: Effective dose of compound causing reversal of cholecystokinin-8 (CCK-8) receptor induced delayed gastric emptying in the rat when administered orally; format: functional; settings: Stomach

| Compound | IC50 [1] | also measured |
| --- | --- | --- |
| O=C(N[C@@H]1C(=O)N(Cc2ccccc2)C[C@@H]1C(=O)O)c1cc2ccccc2[nH]1 | 550 nM |  |
| O=C(N[C@@H]1C(=O)N(c2ccccc2F)C[C@@H]1C(=O)O)c1cnc2ccccc2c1 | 170 nM |  |
| O=C(O)[C@H]1CN(c2ccccc2)C(=O)[C@H]1NS(=O)(=O)c1ccc2ccccc2c1 | > 1000 nM |  |
| O=C(N[C@@H]1C(=O)N(Cc2ccccc2)C[C@@H]1C(=O)O)c1ccc2ccccc2c1 | 1290 nM |  |
| O=C(N[C@@H]1C(=O)N(c2ccccc2)C[C@@H]1C(=O)O)c1cc2ccccc2[nH]1 | 18.5 nM |  |
| O=C(N[C@@H]1C(=O)N(c2ccccc2F)C[C@@H]1C(=O)O)c1ccc2ccccc2c1 | 62 nM |  |
| O=C(N[C@H]1C(=O)N(c2ccccc2)C[C@@H]1C(=O)O)c1cc2ccccc2[nH]1 | 360 nM |  |
| CCCCCN(CCCCC)C(=O)C(CCC(=O)O)NC(=O)c1ccc(Cl)c(Cl)c1 (centres undefined) [LORGLUMIDE] | 22 nM |  |
| O=C(N[C@@H]1C(=O)N(c2ccccc2)C[C@@H]1C(=O)O)c1ccc2ccccc2c1 | 16 nM | Kb [2]: 6.31 nM; ED50 [3]: 0.41 mg/kg; ED50 [4]: 1.8 mg/kg |
| O=C(N[C@H]1C(=O)N(c2ccccc2)C[C@@H]1C(=O)O)c1ccc2ccccc2c1 | 290 nM |  |
| CC(C)(C)OC(=O)[C@H]1CN(c2ccccc2)C(=O)[C@H]1NC(=O)c1ccc2ccccc2c1 | > 1000 nM |  |
